Measured values from ChEMBL document CHEMBL4825716, “Novel N-Heteroaryl Quinazolin-2-amine Derivatives as LRRK2 Inhibitors for Treating Parkinson's Disease” (ACS Med Chem Lett, 2021).

Target: Leucine-rich repeat serine/threonine-protein kinase 2 (Homo sapiens, UniProt Q5S007, G2019S)
Assay: Inhibition of Kinase tracer 236 binding to GST-tagged truncated human LRRK2 G2019S (970 to 2527 residues) mutant using fluorescein labeled LRRKtide peptide as substrate preincubated for 15 mins followed by substrate addition measured after 90 mins in presence of ATP at Km concentration by TR-FRET Lanthascreen assay

Sequence of Leucine-rich repeat serine/threonine-protein kinase 2 (Q5S007 whole entry G2019S, the tested form may be a part): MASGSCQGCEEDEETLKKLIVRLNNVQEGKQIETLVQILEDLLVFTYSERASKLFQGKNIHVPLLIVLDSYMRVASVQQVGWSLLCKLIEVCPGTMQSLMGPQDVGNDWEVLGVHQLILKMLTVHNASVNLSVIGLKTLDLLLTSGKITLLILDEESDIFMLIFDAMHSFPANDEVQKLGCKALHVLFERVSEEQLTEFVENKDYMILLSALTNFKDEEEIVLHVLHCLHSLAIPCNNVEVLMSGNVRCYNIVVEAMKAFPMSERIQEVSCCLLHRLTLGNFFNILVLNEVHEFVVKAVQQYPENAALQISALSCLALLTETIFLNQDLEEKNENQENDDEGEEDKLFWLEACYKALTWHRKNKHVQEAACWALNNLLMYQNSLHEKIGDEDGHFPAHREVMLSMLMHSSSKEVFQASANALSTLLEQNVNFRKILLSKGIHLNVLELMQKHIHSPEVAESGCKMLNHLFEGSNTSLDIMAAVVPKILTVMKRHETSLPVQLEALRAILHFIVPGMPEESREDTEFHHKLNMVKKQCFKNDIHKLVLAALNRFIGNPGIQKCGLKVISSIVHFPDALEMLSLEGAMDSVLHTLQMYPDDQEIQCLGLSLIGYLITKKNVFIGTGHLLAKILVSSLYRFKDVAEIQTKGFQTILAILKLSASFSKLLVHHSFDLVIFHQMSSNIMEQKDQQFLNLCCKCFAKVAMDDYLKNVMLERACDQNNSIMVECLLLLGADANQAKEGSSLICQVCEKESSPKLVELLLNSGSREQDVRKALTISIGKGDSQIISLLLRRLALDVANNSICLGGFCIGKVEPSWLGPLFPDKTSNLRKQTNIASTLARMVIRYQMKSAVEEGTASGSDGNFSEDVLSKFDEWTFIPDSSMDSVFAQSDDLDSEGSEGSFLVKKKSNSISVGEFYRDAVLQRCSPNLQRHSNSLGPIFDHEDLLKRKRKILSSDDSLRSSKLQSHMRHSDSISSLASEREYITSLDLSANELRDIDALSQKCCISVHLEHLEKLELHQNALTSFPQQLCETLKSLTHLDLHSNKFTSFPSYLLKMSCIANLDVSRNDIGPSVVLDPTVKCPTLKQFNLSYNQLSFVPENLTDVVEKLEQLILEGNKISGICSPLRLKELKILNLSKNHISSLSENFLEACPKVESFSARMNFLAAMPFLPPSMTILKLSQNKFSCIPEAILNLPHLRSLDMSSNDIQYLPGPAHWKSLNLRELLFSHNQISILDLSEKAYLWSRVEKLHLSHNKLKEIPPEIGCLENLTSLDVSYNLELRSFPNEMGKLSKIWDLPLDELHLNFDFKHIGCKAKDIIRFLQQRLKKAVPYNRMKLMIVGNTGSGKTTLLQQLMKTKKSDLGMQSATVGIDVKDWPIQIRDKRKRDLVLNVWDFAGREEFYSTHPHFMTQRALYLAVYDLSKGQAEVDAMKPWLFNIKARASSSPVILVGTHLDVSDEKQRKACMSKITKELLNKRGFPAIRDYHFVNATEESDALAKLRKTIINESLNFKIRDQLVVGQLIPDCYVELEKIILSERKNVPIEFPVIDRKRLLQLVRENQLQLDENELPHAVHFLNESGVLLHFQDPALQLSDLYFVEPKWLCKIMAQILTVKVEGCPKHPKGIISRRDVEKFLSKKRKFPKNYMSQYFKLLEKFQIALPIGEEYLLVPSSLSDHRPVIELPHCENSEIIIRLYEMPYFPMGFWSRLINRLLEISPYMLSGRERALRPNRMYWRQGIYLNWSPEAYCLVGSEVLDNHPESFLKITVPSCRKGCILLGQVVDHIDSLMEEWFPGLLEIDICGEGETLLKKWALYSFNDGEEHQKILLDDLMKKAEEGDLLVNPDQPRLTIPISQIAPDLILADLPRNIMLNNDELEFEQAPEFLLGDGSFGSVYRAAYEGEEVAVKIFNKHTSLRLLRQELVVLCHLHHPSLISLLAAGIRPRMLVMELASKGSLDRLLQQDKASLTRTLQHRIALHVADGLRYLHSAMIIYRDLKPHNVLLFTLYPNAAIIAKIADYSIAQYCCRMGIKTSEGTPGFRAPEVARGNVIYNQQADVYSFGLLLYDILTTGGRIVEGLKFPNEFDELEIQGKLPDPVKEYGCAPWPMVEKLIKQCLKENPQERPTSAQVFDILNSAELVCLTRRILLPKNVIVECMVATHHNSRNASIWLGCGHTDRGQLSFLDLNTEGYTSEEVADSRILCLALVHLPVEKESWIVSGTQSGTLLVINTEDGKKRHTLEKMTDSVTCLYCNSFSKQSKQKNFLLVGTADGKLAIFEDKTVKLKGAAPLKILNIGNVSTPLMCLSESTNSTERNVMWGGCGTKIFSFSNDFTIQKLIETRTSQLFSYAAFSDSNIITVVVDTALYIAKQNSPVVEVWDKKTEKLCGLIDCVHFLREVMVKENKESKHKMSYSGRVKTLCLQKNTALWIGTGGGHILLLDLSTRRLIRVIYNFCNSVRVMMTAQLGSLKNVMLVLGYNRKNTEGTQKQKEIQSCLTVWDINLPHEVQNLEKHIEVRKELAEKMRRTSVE

IC50 [pM]	Compound
< 631	N#CC1COCC1N1CCC(c2cc3nc(Nc4cnn(C5CC5)c4Cl)ncc3cc2Cl)CC1 (stereo unspecified)
< 631	O=S1(=O)CC(N2CCC(c3cc4nc(Nc5cnn(C6CC6)c5Cl)ncc4cc3Cl)CC2)C1

Continued, compound first:

Compound	IC50 [pM]
Cc1c(Nc2ncc3cc(Cl)c(C4CCN(C5COCC5F)CC4)cc3n2)cnn1C1CC1 (stereo unspecified)	< 631
Cc1c(Nc2ncc3cc(Cl)c(C4CCN(C5COC5)[C@@H](C)C4)cc3n2)cnn1C1CC1 (stereo partly specified)	< 631
Cc1c(Nc2ncc3cc(Cl)c(C4CCN(C5(C)COC5)CC4)cc3n2)cnn1C1CCOC1 (stereo unspecified)	< 631
Cc1cc(Nc2ncc3cc(Cl)c(C4CCN(C5COC5)CC4)cc3n2)sn1	< 631
